# Laboratory results taken from publication PMC7926928, “Preliminary Investigation of the Antioxidant, Anti-Diabetic, and Anti-Inflammatory Activity of Enteromorpha intestinalis Extracts” (Molecules, 2021).
# System: T1, trypsin
# T1 construct: gene PRSS1
# Experiment: casein digestion, absorbance at […] nm
# Type: biochemical
# Details: casein 0.8%, 20 mM Tris-HCl pH 7.4, 37 °C, 20 min
structure (smiles),measurement,value
CC(=O)Oc1ccccc1C(=O)O [acetylsalicylic acid],Acetylsalicylic Acid,5.11 ± 0.97 µg/mL
